Data as given in paper PMC11222247, “PEGylation renders carnosine resistant to hydrolysis by serum carnosinase and increases renal carnosine levels” (Amino Acids, 2024).
Marks after values point to notes of the source that are not given here.

Legend:
[1] = Pharmacokinetics in kidney of mice after single intravenous injection (LC-MS/MS); format: in vivo, C57BL/6J mice; conditions: for AUC: 0 to 240 min sampling; for half-life: 1000 mg/kg i.v. single injection, noncompartmental, naive pooled
Description: (§1) Six- to eight-week-old male C57BL/6J (20–25 g) mice were purchased from Sino-British SIPPR/BK Lab Animal Ltd (Shanghai, China). After ad libitum feeding for one week, the mice were randomly divided into three groups: the control group (n = 3, saline treated), the PEG-car treated group (n = 3) and the L-carnosine treated group (n = 3). Hereof, each mouse was respectively injected intravenously (i.v.) with saline, PEG-car (1000 mg/kg) or L-carnosine (1000 mg/kg) through the tail vein. The mice were anaesthetized by the inhalation of isoflurane during the injection. Blood samples were collected in EDTA tubes by cardiac puncture at 0, 5, 15, 30, 60, 120, 240 min after the administration of PEG-car or L-carnosine. Sera were obtained by centrifugation of the blood sample at 6800 g for 6 min at 4 ℃. Right after sacrifice, the mice were perfused by phosphate-buffered saline to remove the remaining blood. The brains and kidneys were carefully isolated thereafter. The tissues were stored at − 80 ℃and the sera were stored at − 20 ℃ untill use.
(§2) PEG-car or L-carnosine levels in serum and tissues were determined by liquid chromatography tandem-mass spectrometry (LC-MS/MS). Warfarin (Sigma-Aldrich, St. Louis, MO, USA) was used as internal standard (IS). The entire procedure for sample and standard preparation was carried out on ice. An aliquot of 20 µL serum or homogenized 40 mg tissue were pipetted into centrifuge tube and then 400 µL methanol was added for protein precipitation. After spiking the IS (40 ng for serum and 4 ng for kidney), the samples were vortexed for 1 min and then centrifuged at 18,000 g for 7 min at 4 ℃. The supernatant was used for the assay. The calibration curves were prepared by spiking the known concentrations of PEG-car or L-carnosine into serum or tissue homogenates obtained from untreated mice.
(§3) The concentrations were measured by a UHPLC system (Shimadzu LC-40D XS, Japan) coupled with electrospray ionization (ESI) and triple quadrupole-ion trap mass spectrometry (AB SCIEX QTRAP® 6500+, Singapore). PEG-car was performed in ACQUITY UPLC BEH C18 column (2.1 mm×50 mm, 1.7 μm, Waters, USA) with a 0.6 mL/min flow rate of mobile phase using gradient elution of ultrapure water (2mM Ammonium acetate (Sinopharm Chemical Reagent Co., Ltd, Shanghai, China) containing 0.1% formic acid, eluent A) and acetonitrile (2mM Ammonium formate (Sinopharm Chemical Reagent Co., Ltd, Shanghai, China) containing 0.1% formic acid, eluent B). The solvent gradient was changed according to the following program: 0–0.01 min 10%B, 0.01–0.6 min 10-90%B, 0.6–1.2 min 90%B, 1.2–1.21 min 90%-10%B, 1.21–1.5 min 10%B. L-carnosine was performed in ACQUITY UPLC BEH Amide column (2.1 mm×50 mm, 1.7 μm, Waters, USA) with a 0.6 mL/min flow rate of mobile phase using gradient elution of ultrapure water (2mM Ammonium acetate containing 0.1% formic acid, eluent A) and acetonitrile (2mM Ammonium formate containing 0.1% formic acid, eluent B). The solvent gradient was as follows: 0–0.01 min 90%B, 0.01–0.6 min 90%-40%B, 0.6–1.2 min 40%B, 1.2–1.21 min 40-90%B, 1.21–1.5 min 90%B. The injection volume was 5 µL. The QTRAP® 6500 + was operated in positive mode, multiple reaction monitoring (MRM) in unit resolution for Q1 and Q3. For detection of PEG-car, three transitions were set with a Q1 mass of 776.4, and Q3 masses of 109.9 (Collision Energy (CE) 119), 126.8 (CE 51), 707.2 (CE 38). For L-carnosine, four transitions were set with a Q1 mass of 227.3, and Q3 masses of 83.1 (CE 53), 110.0(CE 31), 156.2(CE 21), 210.2(CE 16). Pharmacokinetic parameters were calculated by noncompartmental analysis using a sparse sampling and naïve pooled approach (Phoenix WinNonLin 7.0, Certara, Mountain View, CA, USA).

[2] = Pharmacokinetics in serum of mice after single intravenous injection (LC-MS/MS); format: in vivo, C57BL/6J mice; conditions: for half-life: 1000 mg/kg i.v. single injection, noncompartmental, naive pooled; for AUC: 0 to 240 min sampling
Description: as §1, §2, §3

[3] = molecular target: T1, carnosinase-1 (recombinant Human CN-1) (Homo sapiens, UniProt Q96KN2); assay: Enzymatic hydrolysis by carnosinase-1 (histidine release, fluorometric assay); format: biochemical; conditions: for Fluorescence (proportional to histidine release) on incubation with recombinant CN-1: 1 mM substrate, Tris/HCl 50 mM pH 7.5, 30 °C, 5-80 min, Fig. 3; for Hydrolysis in human serum: as worded in the abstract: human serum
T1 construct: purchased Novoprotein Company, Suzhou, China
T1 sequence (Q96KN2 26-507): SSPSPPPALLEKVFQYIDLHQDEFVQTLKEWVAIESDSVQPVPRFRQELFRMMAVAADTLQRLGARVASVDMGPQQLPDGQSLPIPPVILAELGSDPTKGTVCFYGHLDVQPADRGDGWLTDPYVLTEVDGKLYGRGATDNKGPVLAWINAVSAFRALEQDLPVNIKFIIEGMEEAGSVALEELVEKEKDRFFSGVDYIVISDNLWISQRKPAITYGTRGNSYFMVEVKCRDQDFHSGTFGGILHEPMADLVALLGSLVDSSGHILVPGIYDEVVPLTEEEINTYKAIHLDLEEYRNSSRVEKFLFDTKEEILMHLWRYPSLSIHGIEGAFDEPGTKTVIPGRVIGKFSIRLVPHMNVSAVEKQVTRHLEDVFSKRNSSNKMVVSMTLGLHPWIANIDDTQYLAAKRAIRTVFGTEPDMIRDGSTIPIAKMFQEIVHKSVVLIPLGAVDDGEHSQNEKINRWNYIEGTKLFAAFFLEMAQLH
Description: The resistance of the PEG-car to the enzymatic hydrolysis by carnosinase-1 was assayed by a previously designed enzymatic activity test (Lenney et al. [1982]). Briefly, PEG, PEG-car and L-carnosine (1 mM) respectively were incubated in Tris/HCl buffer (50 mM, pH 7.5) at 30 °C with carnosinase-1 (recombinant Human CN-1, Novoprotein Company, Suzhou, China). Aliquots of each sample taken after 5, 10, 20, 30, 40, 60, 80 min, and the enzymatic reaction was stopped by addition of 50 µL of 1% trichloroacetic acid (TCA). After addition of 50 µL of 5 mg/mL o-pthaldialdehyde dissolved in 2 M NaOH and incubation for 30 min at 30 °C, the amount of liberated histidine was quantified by fluorometric assay conducted by a multifunctional enzyme marker reader.

[4] = male, C57BL/6J, mouse, iv, read-out: Half-Life
[5] = male, C57BL/6J, mouse, iv, 1000 mg/kg i.v., at 5 min

Question: Which CL ([1]; 1000 mg/kg i.v.) does the source give for `NCCC(=O)N[C@@H](Cc1cnc[nH]1)C(=O)O` [L-carnosine, reference compound] here?
Answer: The CL was 1.59^d g/min/kg.

Question: What about the Vss ([1]; 1000 mg/kg i.v.) of the same compound?
Answer: The Vss was 208^e g/kg.

Question: And the AUC ([1]; 1000 mg/kg i.v.)?
Answer: Its AUC is 518,040^c ng/mg tissue·min.

Question: What about the half-life [1, 4] of the same compound?
Answer: Its half-life is 1.75 h.

Question: What about the Cmax [1, 5] of the same compound?
Answer: Its Cmax is 5.91e+06 ng/g.

Question: And the clearance ([2]; male, C57BL/6J, mouse, iv, 1000 mg/kg i.v.)?
Answer: The clearance was 15.4 mL/min/kg.

Question: What about the half-life [2, 4] of the same compound?
Answer: Its half-life is 1.03 h.

Question: What about the AUC ([2]; male, C57BL/6J, mouse, iv, 1000 mg/kg i.v., read-out: AUC (converted)) of the same compound?
Answer: The AUC was 1080 µg·h/mL.

Question: What about the Cmax [2, 5] of the same compound?
Answer: The Cmax was 2860 µg/mL.

Question: What about the Vd ([2]; male, C57BL/6J, mouse, iv, 1000 mg/kg i.v., read-out: Vss) of the same compound?
Answer: The Vd was 0.606 L/kg.

Question: And the “Fluorescence (proportional to histidine release) on incubation with recombinant CN-1” value [3]?
Answer: The value was “fluorescence increased with time”.

Question: And the “Hydrolysis in human serum” value [3]?
Answer: Its value is “rapidly hydrolyzed”.

Question: With mPEG-carnosine as the compound, how does the CL ([1]; 1000 mg/kg i.v.) read?
Answer: The CL was 3.47^d* g/min/kg.

Question: And the Vss ([1]; 1000 mg/kg i.v.)?
Answer: Its Vss is 830^e* g/kg.

Question: What about the half-life [1] of the same compound?
Answer: The half-life was 168* min.

Question: What about the AUC ([1]; 1000 mg/kg i.v.) of the same compound?
Answer: The AUC was 173,340^c* ng/mg tissue·min.

Question: And the “Cmax (5 min)” value ([1]; 1000 mg/kg i.v., at 5 min)?
Answer: Its value is 3899^b* ng/mg tissue.

Question: And the CL ([2]; 1000 mg/kg i.v.)?
Answer: The CL was 14.84 mL/min/kg.

Question: What about the Vss ([2]; 1000 mg/kg i.v.) of the same compound?
Answer: The Vss was 294* mL/kg.

Question: And the half-life [2]?
Answer: The half-life was 0.533 h.

Question: And the AUC ([2]; 1000 mg/kg i.v.)?
Answer: The AUC was 67,730 µg/mL·min.

Question: And the “Cmax (5 min)” value ([2]; 1000 mg/kg i.v., at 5 min)?
Answer: The value was 2671 µg/mL.

Question: What about the “Fluorescence (proportional to histidine release) on incubation with recombinant CN-1” value [3] of the same compound?
Answer: Its value is “approximately six times lower than that of the carnosine sample”.

Question: And the “Hydrolysis in human serum” value [3]?
Answer: Its value is “highly resistant to hydrolysis”.

Question: And the “Inhibition of CN-1 activity” value ([3]; mixture of PEG-car with L-carnosine incubated with recombinant CN-1)?
Answer: The value was “the activity of CN-1 cannot be inhibited by PEG-car”.
